Results from patent US7488720B2, “A1 adenosine receptor agonists” (CV Therapeutics, Inc., priority 2005, dated 2009).

Test: Blood brain penetration assay (in situ brain perfusion)
Format: in vivo
Settings: rat in situ brain perfusion, 5 μM, 1 min, left cerebrum
Method: Studies of transport of the compounds of Formula I were carried out in accordance with an in situ brain perfusion technique disclosed in “Methods in Molecular medicine, Vol. 89, pp209-218, by Quentin R. Smith and David D. Allen
Anesthesia: Cocktail of 90 mg/kg ketamine/9 mg/kg xylazine was given at a volume of […] as i.m. injection.
Surgery and perfusion: The left common carotid artery was cannulated, the chest opened and the heart severed. The brain was perfused at 10 ml/min for a predetermined duration of time, followed by post-perfusion with perfusion solution for 30 seconds.
A stock solution of the test drug was prepared as a solution of […] in DMSO.
C. Treatment • 1. Three rats per group were infused with the study compounds or a control compound via the left common carotid artery. • 2. Brain and perfusion solution samples were obtained at the end of the perfusions. D. Sample Collection • 1. Brains were collected and the left hemispheres or regions thereof were segmented and flash frozen in liquid nitrogen. • 2. A sample of the perfusion solution was also taken after each perfusion into an Eppendorf tube, and stored at −80° C. in separate container from the brain samples. • 3. When necessary, prior to the perfusion, blood samples were collected in tubes prepared with study anticoagulant. Whole blood was centrifuged at 8000 rpm for 3 minutes. Plasma was collected into Eppendorf tubes and frozen at −80° C. in separate container from the brain samples. E. Analytical and Data Analysis
Concentrations of study and marker compounds in all samples was measured using LC/MS-MS (and/or LC-UV technique when applicable) and permeability kinetics were determined.

rate of penetration of the blood brain barrier [pmol/g/s]	SMILES
0.10	O=C(CS(=O)(=O)O)NCc1nc(NC2CCCC2)c2ncn([C@@H]3O[C@H](CO)[C@@H](O)[C@H]3O)c2n1 [Example 6B, N-({9-[(4S,2R,3R,5R)-3,4-dihydroxy-5-(hydroxymethyl)oxolan-2-yl]-6-(cyclopentylamino)purin-2-yl}methyl)carbamoylmethylsulfonic acid]
61.5	CN(C)CCCN1c2ccccc2Sc2ccc(Cl)cc21 [Chlorpromazine, reference compound]
0.015	O=C(NCc1nc(NC2CCCC2)c2ncn([C@@H]3O[C@H](CO)[C@@H](O)[C@H]3O)c2n1)c1ccc(S(=O)(=O)O)cc1 [Example 6A, 4-[N-({9-[(4S,2R,3R,5R)-3,4-dihydroxy-5-(hydroxymethyl)oxolan-2-yl]-6-(cyclopentylamino)purin-2-yl}methyl)carbamoyl]benzenesulfonic acid]
